Results taken from US12104143B2, “Compositions comprising cellulase with a nonionic surfactant and a quaternary ammonium compound” (ECOLAB USA INC., priority 2018, dated 2024).

How the values were obtained:
[1] = tested on: dark eyed fruit flies (DEFF); test: Adult fly emergence test, dark eyed fruit flies (DEFF); type: in vivo; details: 1.8% sodium citrate, pH about 4.5; 1% active Bardac 205M, 0.5% Cellulase B or 2% Tween 20 (Test Comp. C, B, A)
Method: Tests were performed to assess the cleaning compositions' effectiveness against insects. Small flies, which are common near clogged drains for beverage towers were used for these tests. Carolina Biological Formula 2-24 Instant Drosophila Medium was mixed with water in equal parts liquid to media by volume. A small pinch of active yeast was also added. The media was allowed to sit for two days before the start of the test, allowing the yeast time to ferment and ensure there will be enough food available for fly larvae when introduced in the media. Ten larvae of each fly species are placed into the fruit fly vials containing media two days after starting the media. The age of the larvae varies, but the majority of the larvae in each vial were mid instars larvae. Mature larvae were avoided to prevent pupation before the product is added. Each treatment had 5 replicates, for a total of 50 larvae of each species per treatment. Larvae were collected from the media of existing fly rearing containers. Emergence of adult flies was recorded at one week, two weeks, and three weeks to determine how many of the […] larvae had completed development and emerged as adults. The test was maintained at 80° F. and ambient humidity. Tween 20 was tested as an exemplary nonionic surfactant. DRAIN EASE FLOW from Novozymes was tested as an exemplary enzyme composition. […]

cellulase activity = test: Shelf life stability by enzyme activity assay, incubated at 37° C. over 8 weeks (Examples 8-10); type: physicochemical; details: for remaining cellulase activity: 4 weeks at 37° C.
Method: The impact of pH on shelf life stability was examined. […] The compositions were adjusted to a pH of 4.00, 4.25, and 4.50. Enzyme stability was assessed by an activity assay.
The compositions were adjusted to a pH of 4.25. Two control compositions were also prepared, one without a surfactant and one with the anionic surfactant, […] (SLS), as a negative control. Enzyme stability was assessed by an activity assay. […] The control containing no surfactant approached 0% remaining activity after the 8-week period.
Different stabilizers—glycerol and PEG 200—were tested to assess their effect on shelf life stability of formulations including a quaternary amine. […] The compositions were adjusted to a pH of 4.25. Enzyme stability was assessed by an activity enzyme. A control composition was also prepared having no stabilizer.

DRAIN EASE FLOW activity = test: Enzyme stability: retained DRAIN EASE FLOW activity in degrading a sugar snake after incubation at 37° C. (Example 6); type: physicochemical; details: 20% stabilizer, 1.0% active Bardac 205M, pH about 4.5
Method: Enzyme stability was tested in cleaning compositions prepared with differing stabilizers. […] The effect of pH on stability was also assessed by testing compositions at a pH of 4.5 and 5.5. […] Enzyme stability was again assessed by an activity assay. […] This increased stability is even more pronounced when formulated with 1% active Bardac […].

[2] = Cellulase catalyzed hydrolysis of bacterial cellulose (sugar snake degradation) with stabilizers (Example 7); type: biochemical; details: 10% stabilizer; 0.5 wt. % DRAIN EASE FLOW, 2 wt. % Tween 20, 0.1 wt. % Bardac 205M, pH about 4.0; 20 mL/g, 2 hours
Method: The stabilizers tested were PEG 200, Glycerol, Propylene Glycol, and Sucrose. A composition was also prepared without a stabilizer. All the compositions were prepared in water at a pH of about 4.0. A piece of sugar snake weighing about 5 grams was used to screen enzyme performance. The chemistry was dosed at 20 mL/g sugar snake and incubated for 2 hours. The relative enzyme performance was determined at each concentration by comparing the performance to control formulations lacking stabilizer. The results are provided in FIG. 11 where 40 indicates 40% degradation.

With CCCCCCCCCCCC(=O)OCCOCCOCCOCCOCCOCCOCCOCCOCCOCCOCCOCCOCCOCCOCCOCCOCCOCCOCCOCCOCC(OCCOCCOCCOCCOCCOCCOCCOCCOCCOCCOCCOCCOCCOCCOCCOCCOCCOCCOCCOCCO)C1OCC(OCCOCCOCCOCCOCCOCCOCCOCCOCCOCCOCCOCCOCCOCCOCCOCCOCCOCCOCCOCCO)C1OCCOCCOCCOCCOCCOCCOCCOCCOCCOCCOCCOCCOCCOCCOCCOCCOCCOCCOCCOCCO (stereo not drawn) [Tween 20, polyethylene glycol sorbitan monolaurate] the “adult DEFF emergence relative to the water and buffer only controls” value [1] was “not statistically significant”, the “residual activity after 8 weeks” value (cellulase activity; 2 wt. % surfactant (or none), 0.2 wt. % Bardac 205M, 10 wt. % PEG 200, 0.5 wt. % DRAIN EASE FLOW, pH 4.25, 37° C.) was 55% and the “shelf stability ranking among surfactants” value (cellulase activity; 2 wt. % surfactant, 0.2 wt. % Bardac 205M, 10 wt. % PEG 200, pH 4.25, 37° C., 8 weeks) was “best stability”.
With OCC(O)CO [glycerol] the remaining cellulase activity (cellulase activity; 10% stabilizer, both quaternary amine concentrations (175 ppm and 1000 ppm), pH 4.25) was > 95%, the “shelf life stability ranking among stabilizers” value (cellulase activity; 10 wt. % stabilizer or none, 175 ppm or 1000 ppm Bardac 205M, pH 4.25, 37° C.) was “best stability” and the “enzyme stability relative to control formulations lacking stabilizer” value (DRAIN EASE FLOW activity) was “enhanced stability”.
With CC(O)CO (stereo not drawn) [propylene glycol] the “enzyme stability relative to control formulations lacking stabilizer” value (DRAIN EASE FLOW activity) was “did not enhance stability”.
With OC[C@H]1O[C@@](CO)(O[C@H]2O[C@H](CO)[C@@H](O)[C@H](O)[C@H]2O)[C@@H](O)[C@@H]1O [sucrose] the “sugar snake degradation performance versus control formulations lacking stabilizer” value [2] was “did not statistically impact performance”.
With polyethylene glycol 200 [PEG 200] the remaining cellulase activity (cellulase activity; 10% stabilizer, 175 ppm quaternary amine, pH 4.25) was > 40%, the shelf life stability (cellulase activity; 10% stabilizer, 1000 ppm quaternary, pH 4.25, 37° C.) was “enhanced stability” and the “enzyme stability relative to control formulations lacking stabilizer” value (DRAIN EASE FLOW activity) was “enhanced stability”.
In the case of polyethylene glycol 400 [PEG 400], the “enzyme stability relative to control formulations lacking stabilizer” value (DRAIN EASE FLOW activity) is reported as “did not enhance stability”.
